Experimental data taken from US20230265116A1, “DEGRADATION OF (EGFR) BY CONJUGATION OF EGFR INHIBITORS WITH E3 LIGASE LIGAND AND METHODS OF USE” (BEIGENE, LTD., priority 2020, published 2023).

How the values were obtained:
Assay type in all cases: cell-based
[1] = target: T1, EGFR L858R/T790M/C797S (BaF3-LTC cells) (Homo sapiens, UniProt P00533, C797S/L858R/T790M); assay: EGFR degradation HTRF assay, BaF3-LTC cells; conditions: BaF3-LTC cells; for DC50: EGFR degradation, IC50 (DC50) from curve fit, read-out: DC50(nM) BaF3-LTC; for Dmax: maximum percentage of inhibition (degradation), read-out: Dmax (%) BaF3-LTC
T1 construct: expressed in transfected cells; host or cells: BaF3
In short: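 Cells treated 16 h at 37 °C, 5% CO2 in medium with 0.2% DMSO; top final concentration 10 uM, 5-fold dilution, 8 doses. Lysates read by HTRF (665/620 nm); degradation % versus DMSO high control, DC50 from four-parameter fit, Dmax as maximal degradation.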

[2] = test system: EGFR Del19/T790M/C797S (H1975-clone #28); assay: EGFR degradation HTRF assay, H1975-clone #28 DTC cells; conditions: H1975 # 28 DTC cells; for DC50: EGFR degradation, IC50 (DC50) from curve fit, read-out: DC50(nM) H1975 # 28 DTC; for Dmax (%) H1975 # 28 DTC: maximum percentage of inhibition (degradation)
In short: (§1)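 Read-out is an HTRF EGFR signal (337 nm excitation, 665/620 nm) from lysates of mutant-EGFR H1975 clones in which only the exogenous EGFR survives knockout. Treatment ran 16h at 37° C. from 10 uM final downward in 5-fold steps. DC50 comes from a logistic fit and Dmax is the maximal degradation.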

[3] = test system: EGFR Del19/C797S (H1975-clone #23); assay: EGFR degradation HTRF assay, H1975-clone #23 DC cells; conditions: 16h treatment; for H1975 #23 DC Dmax (%): maximum percentage of degradation; for DC50: H1975 #23 DC, read-out: H1975 #23 DC DC50
In short: as §1

[4] = target: T2, EGFR L858R/C797S (BaF3 LC cells) (Homo sapiens, UniProt P00533, C797S/L858R); assay: EGFR degradation HTRF assay, BaF3 LC cells; conditions: BaF3 LC, 16h treatment; for DC50: read-out: BaF3 LC DC50; for Dmax: maximum percentage of degradation, read-out: BaF3 LC Dmax (%)
T2 construct: expressed in transfected cells; host or cells: BaF3
T2 sequence (P00533 25-1210 C797S/L858R): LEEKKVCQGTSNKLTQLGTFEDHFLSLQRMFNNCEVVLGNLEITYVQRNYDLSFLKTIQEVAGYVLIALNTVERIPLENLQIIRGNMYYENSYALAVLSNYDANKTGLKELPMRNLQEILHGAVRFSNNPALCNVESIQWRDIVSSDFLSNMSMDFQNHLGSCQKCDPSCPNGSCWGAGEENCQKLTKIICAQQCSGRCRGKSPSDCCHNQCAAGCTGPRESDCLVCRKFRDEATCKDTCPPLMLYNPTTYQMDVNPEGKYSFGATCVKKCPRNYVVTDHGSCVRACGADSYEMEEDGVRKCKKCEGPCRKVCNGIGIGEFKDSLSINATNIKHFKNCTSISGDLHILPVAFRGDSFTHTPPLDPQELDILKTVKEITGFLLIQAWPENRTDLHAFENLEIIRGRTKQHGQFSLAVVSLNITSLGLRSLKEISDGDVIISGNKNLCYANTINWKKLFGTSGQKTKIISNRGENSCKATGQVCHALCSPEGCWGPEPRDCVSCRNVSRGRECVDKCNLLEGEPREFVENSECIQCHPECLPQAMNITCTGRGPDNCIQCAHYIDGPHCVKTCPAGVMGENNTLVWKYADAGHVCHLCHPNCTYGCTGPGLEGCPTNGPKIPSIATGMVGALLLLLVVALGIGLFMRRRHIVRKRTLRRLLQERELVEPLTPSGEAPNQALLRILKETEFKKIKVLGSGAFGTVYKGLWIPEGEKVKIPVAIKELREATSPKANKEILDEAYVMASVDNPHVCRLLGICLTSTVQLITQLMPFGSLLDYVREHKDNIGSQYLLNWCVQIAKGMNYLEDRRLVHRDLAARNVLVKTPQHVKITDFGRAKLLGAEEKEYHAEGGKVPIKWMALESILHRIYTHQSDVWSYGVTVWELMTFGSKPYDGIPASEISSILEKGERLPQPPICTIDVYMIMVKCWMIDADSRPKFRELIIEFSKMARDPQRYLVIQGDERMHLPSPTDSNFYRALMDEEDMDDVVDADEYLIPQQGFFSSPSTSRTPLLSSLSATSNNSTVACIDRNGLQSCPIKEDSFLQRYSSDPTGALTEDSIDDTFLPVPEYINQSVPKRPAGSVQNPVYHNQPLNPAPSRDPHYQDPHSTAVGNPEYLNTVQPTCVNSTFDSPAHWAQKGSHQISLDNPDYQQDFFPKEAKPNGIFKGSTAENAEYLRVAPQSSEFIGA

T1 sequence (P00533 25-1210 T790M/C797S/L858R): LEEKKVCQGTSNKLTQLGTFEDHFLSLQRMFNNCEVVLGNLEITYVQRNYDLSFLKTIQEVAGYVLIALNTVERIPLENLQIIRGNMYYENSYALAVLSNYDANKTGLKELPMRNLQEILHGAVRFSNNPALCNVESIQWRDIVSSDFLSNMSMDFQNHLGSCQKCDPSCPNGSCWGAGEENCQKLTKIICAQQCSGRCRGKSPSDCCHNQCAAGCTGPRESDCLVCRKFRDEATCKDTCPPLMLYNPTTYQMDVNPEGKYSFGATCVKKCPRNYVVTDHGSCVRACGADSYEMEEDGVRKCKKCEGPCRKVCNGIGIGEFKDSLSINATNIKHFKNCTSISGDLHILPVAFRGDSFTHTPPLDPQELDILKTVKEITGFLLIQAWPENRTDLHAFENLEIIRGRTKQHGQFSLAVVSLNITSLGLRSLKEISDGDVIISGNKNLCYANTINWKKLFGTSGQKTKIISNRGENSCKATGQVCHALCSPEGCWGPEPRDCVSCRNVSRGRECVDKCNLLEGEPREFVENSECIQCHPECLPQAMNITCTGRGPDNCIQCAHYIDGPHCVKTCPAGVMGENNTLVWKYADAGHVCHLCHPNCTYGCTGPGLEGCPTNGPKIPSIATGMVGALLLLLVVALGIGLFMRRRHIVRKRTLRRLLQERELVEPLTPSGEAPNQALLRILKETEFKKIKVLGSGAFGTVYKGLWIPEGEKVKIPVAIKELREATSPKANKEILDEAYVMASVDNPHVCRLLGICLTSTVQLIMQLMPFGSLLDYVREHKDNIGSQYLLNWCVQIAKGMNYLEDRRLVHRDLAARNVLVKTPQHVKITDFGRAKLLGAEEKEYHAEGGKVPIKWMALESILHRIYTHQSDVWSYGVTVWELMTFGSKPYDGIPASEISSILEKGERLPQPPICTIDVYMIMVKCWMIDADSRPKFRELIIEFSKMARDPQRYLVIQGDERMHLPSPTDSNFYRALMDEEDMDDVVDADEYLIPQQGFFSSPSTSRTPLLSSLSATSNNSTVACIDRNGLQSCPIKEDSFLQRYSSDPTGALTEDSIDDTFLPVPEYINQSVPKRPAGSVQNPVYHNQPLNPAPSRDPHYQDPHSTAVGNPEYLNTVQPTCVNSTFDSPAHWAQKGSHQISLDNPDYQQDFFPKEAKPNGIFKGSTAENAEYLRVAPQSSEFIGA

| Compound | DC50 [1] | DC50 [2] | DC50 [3] | DC50 [4] | Dmax [1] | Dmax [4] | Dmax (%) H1975 # 28 DTC [2] | H1975 #23 DC Dmax (%) [3] |
| --- | --- | --- | --- | --- | --- | --- | --- | --- |
| CCOc1cc(N2CCC(N3CCN(CCc4c(F)ccc5c4n(C)c(=O)n5C4CCC(=O)NC4=O)CC3)CC2)c(CC)cc1Nc1ncc(Br)c(Nc2ccc3nc(CC)ccc3c2P(C)(C)=O)n1 (centres unmarked) [Example 503, 3-(4-(2-(4-(1-(4-((5-bromo-4-((5-(dimethylphosphoryl)-2-ethylquinolin-6-yl)amino)pyrimidin-2-yl)amino)-5-ethoxy-2-ethylphenyl)piperidin-4-yl)piperazin-1-yl)ethyl)-5-fluoro-3-methyl-2-oxo-2,3-dihydro-1H-benzo[d]imidazol-1-yl)piperidine-2,6-dione] | 7 nM | 1.34 nM | 1.57 nM | 7.53 nM |  |  | 79.81% | 81.03% |
| CCOc1cc(N2CCC(N3CCN(CCc4ccc(F)c5c4oc(=O)n5C4CCC(=O)NC4=O)CC3)CC2)c(CC)cc1Nc1ncc(Br)c(Nc2ccc3nc(CC)ccc3c2P(C)(C)=O)n1 (centres unmarked) [Example 505, 3-(7-(2-(4-(1-(4-((5-bromo-4-((5-(dimethylphosphoryl)-2-ethylquinolin-6-yl)amino)pyrimidin-2-yl)amino)-5-ethoxy-2-ethylphenyl)piperidin-4-yl)piperazin-1-yl)ethyl)-4-fluoro-2-oxobenzo[d]oxazol-3(2H)-yl)piperidine-2,6-dione] | 9.43 nM | 0.925 nM | 3.17 nM | 8.88 nM |  |  | 77.6% | 68.68% |
| CCc1ccc2c(P(C)(C)=O)c(Nc3nc(Nc4cc(CC)c(N5CCC(N6CCN(CCc7cccc8c7oc(=O)n8C7CCC(=O)NC7=O)CC6)CC5)cc4OC)ncc3Br)ccc2n1 (centres unmarked) [Example 509, 3-(7-(2-(4-(1-(4-((5-bromo-4-((5-(dimethylphosphoryl)-2-ethylquinolin-6-yl)amino)pyrimidin-2-yl)amino)-2-ethyl-5-methoxyphenyl)piperidin-4-yl)piperazin-1-yl)ethyl)-2-oxobenzo[d]oxazol-3(2H)-yl)piperidine-2,6-dione] | 7.93 nM | 0.887 nM | 1.94 nM | 15.5 nM | 92.5% | 80.4% | 79.34% | 77.77% |
| CCc1cc(Nc2ncc(Br)c(Nc3cc(F)c4nc(C)ccc4c3P(C)(C)=O)n2)c(OC)cc1N1CCC(N2CCN(C(=O)[C@@H]3CCN(c4cc(F)c([C@H]5CCC(=O)NC5=O)c(F)c4)C3)CC2)CC1 [Example 511, (R)-3-(4-((R)-3-(4-(1-(4-((5-bromo-4-((5-(dimethylphosphoryl)-8-fluoro-2-methylquinolin-6-yl)amino)pyrimidin-2-yl)amino)-2-ethyl-5-methoxyphenyl)piperidin-4-yl)piperazine-1-carbonyl)pyrrolidin-1-yl)-2,6-difluorophenyl)piperidine-2,6-dione] | 10.6 nM | 1.04 nM | 3.3 nM | 9.67 nM | 92.5% | 88.9% | 65% | 67.01% |
| CCc1cc(Nc2ncc(Br)c(Nc3ccc4c(=O)n(C5CC5)ncc4c3P(C)(C)=O)n2)c(OC)cc1N1CCC(N2CCN(CCc3cc(F)c(C4CCC(=O)NC4=O)c(F)c3)CC2)CC1 (centres unmarked) [Example 521, 3-(4-(2-(4-(1-(4-((5-bromo-4-((2-cyclopropyl-5-(dimethylphosphoryl)-1-oxo-1,2-dihydrophthalazin-6-yl)amino)pyrimidin-2-yl)amino)-2-ethyl-5-methoxyphenyl)piperidin-4-yl)piperazin-1-yl)ethyl)-2,6-difluorophenyl)piperidine-2,6-dione] | 17 nM | 1.01 nM | 5.9 nM | 51.6 nM | 87.4% | 74.6% | 80.24% | 75.56% |

Compounds with a lower DC50 [1], results first:

| DC50 [1] | DC50 [2] | DC50 [3] | DC50 [4] | Dmax [1] | Dmax [4] | Compound | Dmax (%) H1975 # 28 DTC [2] | H1975 #23 DC Dmax (%) [3] |
| --- | --- | --- | --- | --- | --- | --- | --- | --- |
| 3.34 nM | 0.759 nM | 3.29 nM | 1.49 nM |  |  | CCOc1cc(N2CCC(N3CCN(CCc4cccc5c4C(C)(C)C(=O)N5C4CCC(=O)NC4=O)CC3)CC2)c(CC)cc1Nc1ncc(Br)c(Nc2ccc3c(=O)n(CC)ncc3c2P(C)(C)=O)n1 (centres unmarked) [Example 501, 3-(4-(2-(4-(1-(4-((5-bromo-4-((5-(dimethylphosphoryl)-2-ethyl-1-oxo-1,2-dihydrophthalazin-6-yl)amino)pyrimidin-2-yl)amino)-5-ethoxy-2-ethylphenyl)piperidin-4-yl)piperazin-1-yl)ethyl)-3,3-dimethyl-2-oxoindolin-1-yl)piperidine-2,6-dione] | 85.93% | 65.52% |
| 3.02 nM | 0.404 nM | 5.49 nM | 57.2 nM |  |  | CCOc1cc(N2CCC(N3CCN(CCc4cc(F)c([C@H]5CCC(=O)NC5=O)c(F)c4)CC3)CC2)c(CC)cc1Nc1ncc(Br)c(Nc2ccc3c(=O)n(C)ncc3c2P(C)(C)=O)n1 [Example 502, (R)-3-(4-(2-(4-(1-(4-((5-bromo-4-((5-(dimethylphosphoryl)-2-methyl-1-oxo-1,2-dihydrophthalazin-6-yl)amino)pyrimidin-2-yl)amino)-5-ethoxy-2-ethylphenyl)piperidin-4-yl)piperazin-1-yl)ethyl)-2,6-difluorophenyl)piperidine-2,6-dione] | 88.96% | 75.93% |
| 6.56 nM | 0.962 nM | 2.95 nM | 12.4 nM |  |  | CCOc1cc(N2CCC(N3CCN(CCc4cccc5c4n(CC)c(=O)n5C4CCC(=O)NC4=O)CC3)CC2)c(CC)cc1Nc1ncc(Br)c(Nc2ccc3nc(CC)ccc3c2P(C)(C)=O)n1 (centres unmarked) [Example 504, 3-(4-(2-(4-(1-(4-((5-bromo-4-((5-(dimethylphosphoryl)-2-ethylquinolin-6-yl)amino)pyrimidin-2-yl)amino)-5-ethoxy-2-ethylphenyl)piperidin-4-yl)piperazin-1-yl)ethyl)-3-ethyl-2-oxo-2,3-dihydro-1H-benzo[d]imidazol-1-yl)piperidine-2,6-dione] | 75.99% | 78.25% |
| 6.1 nM | 0.96 nM | 2.04 nM | 22.5 nM | 93% | 91.7% | CCc1cc(Nc2ncc(Br)c(Nc3ccc4nc(C)ccc4c3P(C)(C)=O)n2)c(OC)cc1N1CCC(N2CCN(CCc3cccc4c3oc(=O)n4C3CCC(=O)NC3=O)CC2)CC1 (centres unmarked) [Example 506, 3-(7-(2-(4-(1-(4-((5-bromo-4-((5-(dimethylphosphoryl)-2-methylquinolin-6-yl)amino)pyrimidin-2-yl)amino)-2-ethyl-5-methoxyphenyl)piperidin-4-yl)piperazin-1-yl)ethyl)-2-oxobenzo[d]oxazol-3(2H)-yl)piperidine-2,6-dione] | 84.41% | 80.87% |
| 4.3 nM | 0.5 nM | 2.41 nM | 8.97 nM | 89.8% | 94% | CCc1cc(Nc2ncc(Br)c(Nc3ccc4nc(C)ccc4c3P(C)(C)=O)n2)c(OC)cc1N1CCC(N2CCN(C(=O)C3CN(c4cccc5c4C(C)(C)C(=O)N5C4CCC(=O)NC4=O)C3)CC2)CC1 (centres unmarked) [Example 507] | 68.8% | 52.12% |
| 3.51 nM | 0.771 nM | 1.83 nM | 3.51 nM | 94.3% | 94% | CCc1cc(Nc2ncc(Br)c(Nc3ccc4nc(C)ccc4c3P(C)(C)=O)n2)c(OC)cc1N1CCC(N2CCN(CCc3cccc4c3C(C)(C)C(=O)N4C3CCC(=O)NC3=O)CC2)CC1 (centres unmarked) [Example 514, 3-(4-(2-(4-(1-(4-((5-bromo-4-((5-(dimethylphosphoryl)-2-methylquinolin-6-yl)amino)pyrimidin-2-yl)amino)-2-ethyl-5-methoxyphenyl)piperidin-4-yl)piperazin-1-yl)ethyl)-3,3-dimethyl-2-oxoindolin-1-yl)piperidine-2,6-dione] | 66.48% | 76.66% |
| 3.77 nM | 0.574 nM | 5.87 nM | 40.3 nM | 96.3% | 74.6% | CCc1cc(Nc2ncc(Br)c(Nc3ccc4c(=O)n(C5CC5)ncc4c3P(C)(C)=O)n2)c(OC)cc1N1CCC(N2CCN(C(=O)[C@@H]3CCN(c4cc(F)c([C@H]5CCC(=O)NC5=O)c(F)c4)C3)CC2)CC1 [Example 526, (R)-3-(4-((R)-3-(4-(1-(4-((5-bromo-4-((2-cyclopropyl-5-(dimethylphosphoryl)-1-oxo-1,2-dihydrophthalazin-6-yl)amino)pyrimidin-2-yl)amino)-2-ethyl-5-methoxyphenyl)piperidin-4-yl)piperazine-1-carbonyl)pyrrolidin-1-yl)-2,6-difluorophenyl)piperidine-2,6-dione] | 83.99% | 52.26% |
